Our source for the inhibition and Activity values is ChEMBL document CHEMBL3046822, “Synthesis, antiplatelet aggregation activity, and molecular modeling study of novel substituted-piperazine analogues” (2011).

Active and inactive are the calls of the source. The calls are words filed in the database; no cut-off is given here.

In assay [1] the test system is Platelet. Briefly: Antiaggregating activity in Homo sapiens (human) platelet rich plasma assessed as inhibition of adrenaline-induced platelet aggregation at 0.25 uM incubated for 4 min prior to adrenaline-induction measured for 5.5 min by turbidometric analysis. The assay is classed as functional, cell-free.
Assay [2] in a line: Antiaggregating activity in Homo sapiens (human) platelet rich plasma assessed as collagen-induced platelet aggregation at 0.25 uM incubated for 4 min prior to collagen-induction measured for 5.5 min by turbidometric analysis (reference value: 50 to 98%). The assay is classed as functional.
A short description of assay [3]: Antiaggregating activity in Homo sapiens (human) platelet rich plasma assessed as ristocetin-induced platelet aggregation at 0.1 uM incubated for 4 min prior to ristocetin-induction measured for 5.5 min by turbidometric analysis (reference value: 65 to 99%). Type of assay: functional.
In assay [4] the test system is Platelet. The experiment in a line: Antiaggregating activity in Homo sapiens (human) platelet rich plasma assessed as inhibition of adrenaline-induced platelet aggregation at 1 uM incubated for 4 min prior to adrenaline-induction measured for 5.5 min by turbidometric analysis. Type of assay: functional, cell-free.
A short description of assay [5]: Antiaggregating activity in Homo sapiens (human) platelet rich plasma assessed as ristocetin-induced platelet aggregation at 1 uM incubated for 4 min prior to ristocetin-induction measured for 5.5 min by turbidometric analysis (reference value: 65 to 99%). Type of assay: functional.
A short description of assay [6]: Antiaggregating activity in Homo sapiens (human) platelet rich plasma assessed as arachidonic acid-induced platelet aggregation at 0.1 uM incubated for 4 min prior to arachidonic acid-induction measured for 5.5 min by turbidometric analysis (reference value: 55 to 100%). Type of assay: functional.
For assay [7], the system named is Platelet. The experiment in a line: Antiaggregating activity in Homo sapiens (human) platelet rich plasma assessed as inhibition of adrenaline-induced platelet aggregation at 0.1 uM incubated for 4 min prior to adrenaline-induction measured for 5.5 min by turbidometric analysis. Type of assay: functional, cell-free.
Assay [8] relates to Platelet. Briefly: Antiaggregating activity in Homo sapiens (human) platelet rich plasma assessed as inhibition of collagen-induced platelet aggregation at 1 uM incubated for 4 min prior to collagen-induction measured for 5.5 min by turbidometric analysis. Type of assay: functional, cell-free.
A short description of assay [9]: Antiaggregating activity in Homo sapiens (human) platelet rich plasma assessed as ristocetin-induced platelet aggregation at 0.25 uM incubated for 4 min prior to ristocetin-induction measured for 5.5 min by turbidometric analysis (reference value: 65 to 99%). The assay is classed as functional.
Assay [10] deals with Platelet. The experiment in a line: Antiaggregating activity in Homo sapiens (human) platelet rich plasma assessed as inhibition of arachidonic acid-induced platelet aggregation at 1 uM incubated for 4 min prior to arachidonic acid-induction measured for 5.5 min by turbidometric analysis. The assay is classed as functional, cell-free.
A short description of assay [11]: Antiaggregating activity in Homo sapiens (human) platelet rich plasma assessed as ristocetin-induced platelet aggregation at 0.5 uM incubated for 4 min prior to ristocetin-induction measured for 5.5 min by turbidometric analysis (reference value: 65 to 99%). Type of assay: functional.
Assay [12] can be described thus: Antiaggregating activity in Homo sapiens (human) platelet rich plasma assessed as collagen-induced platelet aggregation at 0.1 uM incubated for 4 min prior to collagen-induction measured for 5.5 min by turbidometric analysis (reference value: 50 to 98%). The assay is classed as functional.
Assay [13] can be described thus: Antiaggregating activity in Homo sapiens (human) platelet rich plasma assessed as disaggregation of arachidonic acid-induced platelet aggregation at 0.25 uM incubated for 4 min prior to arachidonic acid-induction measured for 5.5 min by turbidometric analysis relative to control. The assay is classed as functional.
Assay [14] is described as follows: Antiaggregating activity in Homo sapiens (human) platelet rich plasma assessed as disaggregation of arachidonic acid-induced platelet aggregation at 0.5 uM incubated for 4 min prior to arachidonic acid-induction measured for 5.5 min by turbidometric analysis relative to control. Type of assay: functional.
In assay [15] the test system is Platelet. Briefly: Antiaggregating activity in Homo sapiens (human) platelet rich plasma assessed as inhibition of collagen-induced platelet aggregation at 0.5 uM incubated for 4 min prior to collagen-induction measured for 5.5 min by turbidometric analysis. Type of assay: functional, cell-free.
Assay [16] is described as follows: Antiaggregating activity in Homo sapiens (human) platelet rich plasma assessed as ADP-induced platelet aggregation at 0.1 uM incubated for 4 min prior to ADP-induction measured for 5.5 min by turbidometric analysis (reference value: 54 to 88%). The assay is classed as functional.
Assay [17] can be described thus: Antiaggregating activity in Homo sapiens (human) platelet rich plasma assessed as ADP-induced platelet aggregation at 0.5 uM incubated for 4 min prior to ADP-induction measured for 5.5 min by turbidometric analysis (reference value: 54 to 88%). Type of assay: functional.
Assay [18] is described as follows: Antiaggregating activity in Homo sapiens (human) platelet rich plasma assessed as ADP-induced platelet aggregation at 0.25 uM incubated for 4 min prior to ADP-induction measured for 5.5 min by turbidometric analysis (reference value: 54 to 88%). The assay is classed as functional.
Assay [19] has as its system Platelet. The experiment in a line: Antiaggregating activity in Homo sapiens (human) platelet rich plasma assessed as inhibition of adrenaline-induced platelet aggregation at 0.5 uM incubated for 4 min prior to adrenaline-induction measured for 5.5 min by turbidometric analysis. The assay is classed as functional, cell-free.
In assay [20] the test system is Platelet. Briefly: Antiaggregating activity in Homo sapiens (human) platelet rich plasma assessed as inhibition of ADP-induced platelet aggregation at 1 uM incubated for 4 min prior to ADP-induction measured for 5.5 min by turbidometric analysis. Type of assay: functional, cell-free.
Assay [21] concerns Platelet. Briefly: Antiaggregating activity in Homo sapiens (human) platelet rich plasma assessed as inhibition of arachidonic acid-induced platelet aggregation at 0.25 uM incubated for 4 min prior to arachidonic acid-induction measured for 5.5 min by turbidometric analysis. The assay is classed as functional, cell-free.
In assay [22] the test system is Platelet. The experiment in a line: Antiaggregating activity in Homo sapiens (human) platelet rich plasma assessed as inhibition of arachidonic acid-induced platelet aggregation at 0.1 uM incubated for 4 min prior to arachidonic acid-induction measured for 5.5 min by turbidometric analysis. The assay is classed as functional, cell-free.
Assay [23] can be described thus: Antiaggregating activity in Homo sapiens (human) platelet rich plasma assessed as disaggregation of ADP-induced platelet aggregation at 0.25 uM incubated for 4 min prior to ADP-induction measured for 5.5 min by turbidometric analysis relative to control. The assay is classed as functional.
For assay [24], the system named is Platelet. The experiment in a line: Antiaggregating activity in Homo sapiens (human) platelet rich plasma assessed as inhibition of ADP-induced platelet aggregation at 0.5 uM incubated for 4 min prior to ADP-induction measured for 5.5 min by turbidometric analysis. The assay is classed as functional, cell-free.
A short description of assay [25]: Antiaggregating activity in Homo sapiens (human) platelet rich plasma assessed as disaggregation of ristocetin-induced platelet aggregation at 0.5 uM incubated for 4 min prior to ristocetin-induction measured for 5.5 min by turbidometric analysis relative to control. Type of assay: functional.
Assay [26] concerns Platelet. The experiment in a line: Antiaggregating activity in Homo sapiens (human) platelet rich plasma assessed as inhibition of collagen-induced platelet aggregation at 0.25 uM incubated for 4 min prior to collagen-induction measured for 5.5 min by turbidometric analysis. The assay is classed as functional.
Assay [27] is described as follows: Antiaggregating activity in Homo sapiens (human) platelet rich plasma assessed as disaggregation of ristocetin-induced platelet aggregation at 0.25 uM incubated for 4 min prior to ristocetin-induction measured for 5.5 min by turbidometric analysis relative to control. The assay is classed as functional.
In assay [28] the test system is Platelet. The experiment in a line: Antiaggregating activity in Homo sapiens (human) platelet rich plasma assessed as inhibition of arachidonic acid-induced platelet aggregation at 0.5 uM incubated for 4 min prior to arachidonic acid-induction measured for 5.5 min by turbidometric analysis. Type of assay: functional.
Assay [29] deals with Platelet. The experiment in a line: Antiaggregating activity in Homo sapiens (human) platelet rich plasma assessed as inhibition of adrenaline-induced platelet aggregation at 0.8 uM incubated for 4 min prior to adrenaline-induction measured for 5.5 min by turbidometric analysis. The assay is classed as functional, cell-free.
In assay [30] the test system is Platelet. The experiment in a line: Antiaggregating activity in Homo sapiens (human) platelet rich plasma assessed as inhibition of arachidonic acid-induced platelet aggregation at 2 uM incubated for 4 min prior to arachidonic acid-induction measured for 5.5 min by turbidometric analysis. Type of assay: functional, cell-free.
For assay [31], the system named is Platelet. Briefly: Antiaggregating activity in Homo sapiens (human) platelet rich plasma assessed as inhibition of ADP-induced platelet aggregation at 0.8 uM incubated for 4 min prior to ADP-induction measured for 5.5 min by turbidometric analysis. Type of assay: functional, cell-free.
Assay [32] deals with Platelet. Briefly: Antiaggregating activity in Homo sapiens (human) platelet rich plasma assessed as inhibition of collagen-induced platelet aggregation at 2 uM incubated for 4 min prior to collagen-induction measured for 5.5 min by turbidometric analysis. The assay is classed as functional, cell-free.
In assay [33] the test system is Platelet. The experiment in a line: Antiaggregating activity in Homo sapiens (human) platelet rich plasma assessed as inhibition of adrenaline-induced platelet aggregation at 2 uM incubated for 4 min prior to adrenaline-induction measured for 5.5 min by turbidometric analysis. The assay is classed as functional, cell-free.
For assay [34], the system named is Platelet. The experiment in a line: Antiaggregating activity in Homo sapiens (human) platelet rich plasma assessed as inhibition of ristocetin-induced platelet aggregation at 2 uM incubated for 4 min prior to ristocetin-induction measured for 5.5 min by turbidometric analysis. The assay is classed as functional, cell-free.
Assay [35] deals with Platelet. The experiment in a line: Antiaggregating activity in Homo sapiens (human) platelet rich plasma assessed as inhibition of arachidonic acid-induced platelet aggregation at 0.8 uM incubated for 4 min prior to arachidonic acid-induction measured for 5.5 min by turbidometric analysis. The assay is classed as functional, cell-free.
The nature of assay [36]: Antiaggregating activity in Homo sapiens (human) platelet rich plasma assessed as arachidonic acid-induced platelet aggregation at 0.5 uM incubated for 4 min prior to arachidonic acid-induction measured for 5.5 min by turbidometric analysis (reference value: 55 to 100%). Type of assay: functional.
A short description of assay [37]: Antiaggregating activity in Homo sapiens (human) platelet rich plasma assessed as ristocetin-induced platelet aggregation at 0.8 uM incubated for 4 min prior to ristocetin-induction measured for 5.5 min by turbidometric analysis (reference value: 65 to 99%). Type of assay: functional.
Assay [38] can be described thus: Antiaggregating activity in Homo sapiens (human) platelet rich plasma assessed as collagen-induced platelet aggregation at 0.5 uM incubated for 4 min prior to collagen-induction measured for 5.5 min by turbidometric analysis (reference value: 50 to 98%). The assay is classed as functional.
The subject of assay [39] is Platelet. Briefly: Antiaggregating activity in Homo sapiens (human) platelet rich plasma assessed as inhibition of ADP-induced platelet aggregation at 2 uM incubated for 4 min prior to ADP-induction measured for 5.5 min by turbidometric analysis. Type of assay: functional, cell-free.
For assay [40], the system named is Platelet. Briefly: Antiaggregating activity in Homo sapiens (human) platelet rich plasma assessed as inhibition of collagen-induced platelet aggregation at 0.8 uM incubated for 4 min prior to collagen-induction measured for 5.5 min by turbidometric analysis. Type of assay: functional, cell-free.

In the case of `Br.O=C(C1CCCN(Cc2ccc(Br)cc2)C1)N1CCN(c2ccccn2)CC1` (stereo not given), the inhibition result in assay [1], in assay [4], in [7], in assay [8], in assay [10] and in assay [15] was “Active” each time. Moreover, the inhibition entry in assay [19] and in assay [20] was “Active” each time. Also, the Activity in [2] is recorded as 64%; in assay [3], 91%; in assay [5], 24%; in assay [6], 72%; in [9], 81%; in assay [11] it was 63%. In addition, the Activity turned out to be 67% in [12]; 22% in assay [13]; 28% in assay [14]; 76% in [16]; 18% in [17]; 65% in assay [18].
Consider `Br.O=C(C1CCCN(Cc2ccc([N+](=O)[O-])cc2)C1)N1CCN(c2ccccc2Cl)CC1` (stereo not given), for which the inhibition entry in assay [1], in [21], in assay [22], in assay [4], in assay [24] and in [7] was “Active” throughout. Moreover, the inhibition entry in assay [8], in assay [26], in assay [10], in assay [28], in assay [15] and in assay [19] was “Active” each time. The inhibition entry in [20] was “Active”. In addition, the Activity in [23] was 28%; in assay [3], 66%; in assay [5], 23%; in assay [25], 50%; in assay [27] it was 58%; in [12], 58%. Further, the Activity in assay [16] is 57%.
With `COc1cc(C(=O)N2CCCC(C(=O)N3CCN(c4ncccn4)CC3)C2)cc(OC)c1OC.Cl` (stereo not given), the inhibition result in assay [29], in [30], in assay [31], in assay [4], in assay [32] and in [7] was “Active” in each case. For the same compound, the inhibition result in assay [33], in assay [8], in assay [34], in assay [35], in assay [10] and in assay [39] was “Active” each time. Further, the inhibition result in assay [40], in [19] and in assay [20] was “Active” each time. The Activity is given as 77% in [3]; 75% in [5]; 76% in assay [6]; 54% in assay [36]; 68% in assay [11]; 67% in [12]. Besides, the Activity in assay [37] is 55%; in [38], 78%; in assay [16] it was 72%; in assay [17] it was 50%.
